Measurements from PubChem BioAssay (NCI).
“And” between values parts separate entries of the source, which are not always exact repeats. Equal values may be shown once.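 Growth conditions: 96-well plates. Treatment: test compound, 48 hours, 5 concentrations. Analysis: linear interpolation between bracketing concentrations; unreached endpoints set to highest concentration. At the GI50, growth is halved. TGI denotes the concentration required for complete inhibition of growth.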

These molecules were tested on KM20L2 colon (assay: inhibition of tumour cell growth, NCI panel, 48 h).
CCOC(=O)c1nc(C)oc1C(F)(F)F showed a TGI of over 100 µM. COc1nc2c(c(O)c(C)c(=O)n2OC2OCC(OC(C)=O)C(OC(C)=O)C2OC(C)=O)c(=O)n1C (centres undefined) showed a TGI of over 100 µM. In the case of O=C(NC1C(=O)NNC1c1cccc([N+](=O)[O-])c1)c1ccccc1 (centres undefined), the TGI is reported as over 100 µM.

The molecules below were run on LOX IMVI melanoma (assay: inhibition of tumour cell growth, NCI panel, 48 h).
Work on Cc1nc2ccccc2nc1CC(=O)C(=O)Nc1ccc(Cl)cc1Cl yielded a TGI of over 100 µM. COc1cc(Nc2cnc3ccc(C(F)(F)F)cc3n2)cc(OC)c1OC gave a TGI of 23.2 µM. O=C1NC2=C(CCCCC/C2=N\O)C12CCCCCC2 was tested, and the TGI was over 100 µM. For CCc1cccc(C)c1NC(=O)CCc1nc(=S)[nH][nH]1, the TGI was over 100 µM. With N#C/C(=C\c1cc(OCc2ccccc2)c(OCc2ccccc2)cn1)C(N)=O the TGI was over 100 µM. N#CC(C(=O)C(=O)Nc1c(Cl)cccc1Cl)c1ccccc1 (centres undefined) was tested, and the GI50 was over 100 µM. O=C1NC(=O)c2c1n(Cc1ccccc1)c(=O)n2Cc1ccccc1 was tested, and the TGI was over 100 µM. COc1cc([C@@H]2c3cc4c(cc3[C@@H](NC(=O)c3ccc(C#N)cc3)C3COC(=O)[C@@H]32)OCO4)cc(OC)c1O (some centres undefined) showed a TGI of 2.34 µM. COc1cc2oc(-c3ccc(O)cc3)cc(=O)c2c(O)c1C1OC(CO)C(O)C(O)C1O (centres undefined) showed a TGI of over 100 µM. In the case of Cc1nn(-c2ccc(Cl)cc2)c2ncnc(N/N=C/c3ccccc3O)c12, the GI50 is reported as 0.389 µM and 0.251 µM and the TGI is reported as 11.9 µM and 10.2 µM. COc1ccc(OC)c(/C=C/c2nc(=S)n(-c3ccc(Cl)cc3)[nH]2)c1 showed a GI50 of 5.02 µM and a TGI of over 100 µM. In the case of COc1ccc2c(c1)C(=O)c1c-2c(Nc2ccccc2OC)nc2ccccc12, the GI50 is reported as over 100 µM and the TGI is reported as over 100 µM. Molecule COc1ccc2c(N)ncc(C#Cc3cc(C(=O)Nc4ccc(CN5CCN(C)CC5)c(C(F)(F)F)c4)cnc3C)c2c1 has a GI50 of 0.505 µM and a TGI of 1.08 µM. COc1cc2c(N3CCN(C(=O)Nc4ccc(OC(C)C)cc4)CC3)ncnc2cc1OCCCN1CCCCC1 showed a GI50 of 8.15 µM and a TGI of 23.9 µM. c1ccc(-c2[nH]ncc2-c2ccnc(-c3ccc(OCCn4ccnc4)cc3)c2)nc1 showed a GI50 of over 25 µM and a TGI of over 25 µM. Work on O=C1c2cccc(Oc3ccccc3)c2C(=O)c2cccc(Oc3ccccc3)c21 yielded a GI50 of over 100 µM and a TGI of over 100 µM. For O=C(OCc1ccc2c(Br)cc(Br)c(O)c2n1)c1cc2ccccc2[nH]1, the GI50 was 0.185 µM and the TGI was 0.405 µM. CC(C)(CO)CNC(=O)c1ccc2[nH]c(O)c(N=Nc3ccc(S(N)(=O)=O)cc3)c2c1 gave a GI50 of over 25 µM and a TGI of over 25 µM. In the case of Cc1cc(O)c2c(c1)C(=O)C=CC2=O, the TGI is reported as 12.6 µM and > 100 µM. CC1(C)N=C(N)N=C(N)N1c1ccc(CCC(=O)Nc2ccc(S(=O)(=O)F)cc2)cc1 was tested, and the GI50 was 1.66 µM and the TGI was over 100 µM. Work on N#CC1(c2ccc(NC(=O)c3cccnc3NCc3ccncc3)cc2)CCCC1 yielded a GI50 of 14.3 µM and a TGI of 29.2 µM. Work on CCN1C(=S)N(CC)C2C1NC(=S)N2/N=C/C=C/c1ccccc1OC (centres undefined) yielded a GI50 of 0.488 µM and a TGI of 12.7 µM. With Cn1nccc1Nc1nccc(-c2ccn([C@H](CO)c3ccc(Cl)c(F)c3)c(=O)c2)n1 the GI50 was 3.72 µM and the TGI was 28.1 µM. CCOC(=O)c1nc(C)oc1C(F)(F)F was tested, and the TGI was over 100 µM. Work on O=C(Nc1cccc(-n2cc(-c3ccncc3)c(-c3cc(O)cc(Cl)c3)n2)c1)c1ccc(N2CCOCC2)c(C(F)(F)F)c1 yielded a GI50 of 1.03 µM and a TGI of 4.61 µM. With N#CC1c2ccccc2C=CN1C(=O)CCCl (centres undefined) the GI50 was 3.94 µM and the TGI was 13.4 µM. Work on O=C1NC(=N[C@@H](CO)c2ccccc2)S/C1=C\c1ccc2ncccc2c1 yielded a GI50 of 6.15 µM and a TGI of over 18.3 µM. O=C1/C(=C/c2ccc(Cl)c(Cl)c2)CN(C(=O)CCN2CCC(=NO)CC2)C/C1=C\c1ccc(Cl)c(Cl)c1 showed a GI50 of 0.256 µM and a TGI of 0.612 µM. CCNc1nc(O)c(/C=C2\C=Nc3ncccc32)s1 showed a GI50 of 3.23 µM and a TGI of 47.5 µM. Molecule COc1nc2c(c(O)c(C)c(=O)n2OC2OCC(OC(C)=O)C(OC(C)=O)C2OC(C)=O)c(=O)n1C (centres undefined) has a TGI of over 100 µM. O=C(/C=C/C12c3ccccc3C(c3ccccc31)C1C(=O)NC(=O)C12)c1ccccn1 (centres undefined) was tested, and the GI50 was 1.11 µM and the TGI was 2.51 µM. In the case of O=C(NC1C(=O)NNC1c1cccc([N+](=O)[O-])c1)c1ccccc1 (centres undefined), the TGI is reported as over 100 µM. O=C1CC(c2ccccc2)Oc2ccccc21 (centres undefined) was tested, and the TGI was 84.3 µM.

The molecules below were run on M14 melanoma (assay: inhibition of tumour cell growth, NCI panel, 48 h).
For Cc1nc2ccccc2nc1CC(=O)C(=O)Nc1ccc(Cl)cc1Cl, the TGI was over 100 µM. Work on O=C1NC2=C(CCCCC/C2=N\O)C12CCCCCC2 yielded a TGI of over 100 µM. CCc1cccc(C)c1NC(=O)CCc1nc(=S)[nH][nH]1 was tested, and the TGI was over 100 µM. In the case of N#C/C(=C\c1cc(OCc2ccccc2)c(OCc2ccccc2)cn1)C(N)=O, the TGI is reported as over 100 µM. Molecule N#CC(C(=O)C(=O)Nc1c(Cl)cccc1Cl)c1ccccc1 (centres undefined) has a GI50 of over 100 µM and a TGI of over 100 µM. O=C1NC(=O)c2c1n(Cc1ccccc1)c(=O)n2Cc1ccccc1 was tested, and the TGI was over 100 µM. Molecule Cc1nc(N)nc(CCC(=O)Nc2cccc(C(F)(F)F)c2)c1-c1ccc(Cl)cc1 has a TGI of over 100 µM. COc1cc([C@@H]2c3cc4c(cc3[C@@H](NC(=O)c3ccc(C#N)cc3)C3COC(=O)[C@@H]32)OCO4)cc(OC)c1O (some centres undefined) was tested, and the TGI was 12.4 µM. Molecule COc1cc2oc(-c3ccc(O)cc3)cc(=O)c2c(O)c1C1OC(CO)C(O)C(O)C1O (centres undefined) has a TGI of over 100 µM. With Cc1nn(-c2ccc(Cl)cc2)c2ncnc(N/N=C/c3ccccc3O)c12 the GI50 was 0.523 µM and 0.34 µM and the TGI was 2.43 µM and 2.11 µM. COc1ccc(OC)c(/C=C/c2nc(=S)n(-c3ccc(Cl)cc3)[nH]2)c1 gave a GI50 of 4.24 µM and a TGI of over 100 µM. Molecule COc1ccc2c(c1)C(=O)c1c-2c(Nc2ccccc2OC)nc2ccccc12 has a GI50 of over 100 µM and a TGI of over 100 µM. In the case of COc1ccc2c(N)ncc(C#Cc3cc(C(=O)Nc4ccc(CN5CCN(C)CC5)c(C(F)(F)F)c4)cnc3C)c2c1, the GI50 is reported as 0.225 µM and the TGI is reported as 0.934 µM. With COc1cc2c(N3CCN(C(=O)Nc4ccc(OC(C)C)cc4)CC3)ncnc2cc1OCCCN1CCCCC1 the GI50 was 16.2 µM and the TGI was 32.6 µM. For c1ccc(-c2[nH]ncc2-c2ccnc(-c3ccc(OCCn4ccnc4)cc3)c2)nc1, the GI50 was over 25 µM and the TGI was over 25 µM. In the case of O=C1c2cccc(Oc3ccccc3)c2C(=O)c2cccc(Oc3ccccc3)c21, the GI50 is reported as over 100 µM and the TGI is reported as over 100 µM. For O=C(OCc1ccc2c(Br)cc(Br)c(O)c2n1)c1cc2ccccc2[nH]1, the GI50 was 0.763 µM and the TGI was 2.15 µM. CC(C)(CO)CNC(=O)c1ccc2[nH]c(O)c(N=Nc3ccc(S(N)(=O)=O)cc3)c2c1 showed a GI50 of over 25 µM and a TGI of over 25 µM. In the case of Cc1cc(O)c2c(c1)C(=O)C=CC2=O, the TGI is reported as 25.7 µM and 21.7 µM. Work on CC1(C)N=C(N)N=C(N)N1c1ccc(CCC(=O)Nc2ccc(S(=O)(=O)F)cc2)cc1 yielded a GI50 of 0.936 µM and a TGI of over 100 µM. N#CC1(c2ccc(NC(=O)c3cccnc3NCc3ccncc3)cc2)CCCC1 showed a GI50 of 16.1 µM and a TGI of over 67.1 µM. In the case of CCN1C(=S)N(CC)C2C1NC(=S)N2/N=C/C=C/c1ccccc1OC (centres undefined), the GI50 is reported as 0.179 µM and the TGI is reported as 0.575 µM. With Cn1nccc1Nc1nccc(-c2ccn([C@H](CO)c3ccc(Cl)c(F)c3)c(=O)c2)n1 the GI50 was 0.0871 µM and the TGI was over 72.2 µM. CCOC(=O)c1nc(C)oc1C(F)(F)F was tested, and the TGI was over 100 µM. For O=C(Nc1cccc(-n2cc(-c3ccncc3)c(-c3cc(O)cc(Cl)c3)n2)c1)c1ccc(N2CCOCC2)c(C(F)(F)F)c1, the GI50 was 0.774 µM and the TGI was 2.74 µM. Work on N#CC1c2ccccc2C=CN1C(=O)CCCl (centres undefined) yielded a GI50 of 13.6 µM and a TGI of 27.6 µM. Molecule O=C1NC(=N[C@@H](CO)c2ccccc2)S/C1=C\c1ccc2ncccc2c1 has a GI50 of 6.16 µM and a TGI of over 25 µM. Work on O=C1/C(=C/c2ccc(Cl)c(Cl)c2)CN(C(=O)CCN2CCC(=NO)CC2)C/C1=C\c1ccc(Cl)c(Cl)c1 yielded a GI50 of 0.782 µM and a TGI of 2.23 µM. CCNc1nc(O)c(/C=C2\C=Nc3ncccc32)s1 gave a GI50 of 4.45 µM and a TGI of 26.9 µM. COc1nc2c(c(O)c(C)c(=O)n2OC2OCC(OC(C)=O)C(OC(C)=O)C2OC(C)=O)c(=O)n1C (centres undefined) showed a TGI of over 100 µM. O=C(/C=C/C12c3ccccc3C(c3ccccc31)C1C(=O)NC(=O)C12)c1ccccn1 (centres undefined) gave a GI50 of 1.83 µM and a TGI of 4.12 µM. O=C(NC1C(=O)NNC1c1cccc([N+](=O)[O-])c1)c1ccccc1 (centres undefined) was tested, and the TGI was over 100 µM. O=C1CC(c2ccccc2)Oc2ccccc21 (centres undefined) was tested, and the TGI was over 100 µM.

What follows are molecules tested on NCI-H23 lung (assay: inhibition of tumour cell growth, NCI panel, 48 h).
Cc1nc2ccccc2nc1CC(=O)C(=O)Nc1ccc(Cl)cc1Cl showed a TGI of over 100 µM.
